# Data taken from patent US9988371B2, “Benzimidazole analogues and related methods” (The Arizona Board of Regents, on Behalf of the University …, priority 2014, dated 2018).
# Tested on: HRAS(G12V) transformed NIH3T3 fibroblasts
# Test: NIH3T3 HRAS(G12V) tumors in nude mice
# Assay type: in vivo, BALB/c nu/nu mice
# Conditions: 1.0, 3.0 or 10 mg/kg daily, oral gavage
# Description: FIG. 8: Anti-tumorigenic activity of Pz-1 in nude mice implanted with RET/C634Y or HRAS(G12V) transformed NIH3T3 fibroblasts. […] Average tumor volume (±SD: standard deviations) is reported. NIH3T3 RET/C634Y (200,000 cells) or NIH3T3 HRAS/G12V (50,000 cells) were inoculated subcutaneously into dorsal portion (both sides) of 6-week-old female BALB/c nu/nu mice (n. 31 mice/cell line) (Jackson Laboratories, Bar Harbor, Me.). After 4 days, before tumors had appeared, animals were randomly assigned to receive Pz-1 (1.0, 3.0 or 10 mg/kg daily) (23 mice/cell line: 8 mice/group for 1.0 and 3.0 mg/kg daily doses and 7 mice for 10 dose mg/kg daily) or vehicle control (8 mice) by oral gavage. Tumor diameters were measured with calipers every 1-2 days. Tumor volumes (V) were calculated by the rotational ellipsoid formula and reported as average volumes±standard deviations. […]
# TT cells (7.5×10^6/mouse) were inoculated subcutaneously into dorsal portions (both sides) of 39 SCID mice (Jackson Laboratories, Bar Harbor, Me.). […] Tumor diameters were measured with callipers every week. Tumor volumes (V) were calculated by the rotational ellipsoid formula: V=A×B^2/2 (A=axial diameter; B=rotational diameter) and reported as average volumes±standard deviations. […] Anti-tumorigenic activity of Pz-1 was also assessed in nude mice implanted with RET/C634Y or HRAS(G12V) transformed NIH3T3 fibroblasts. […]
structure (smiles),measurement,value
"Cn1cc(-c2ccc3c(c2)ncn3-c2ccc(CC(=O)Nc3cc(C(C)(C)C)on3)cc2)cn1 [Pz-1, N-(5-(tert-butyl)isoxazol-3-yl)-2-(4-(5-(1-methyl-1H-pyrazol-4-yl)-1H-benzo[d]imidazol-1-yl)phenyl)acetamide]",formation of tumors driven by the HRAS oncogene,"only reduced, but did not abrogate"
